# In US7019023B2, “Benzothiepine 1, 1-dioxide derivatives, a process for their preparation, pharmaceuticals comprising these compounds, and their use” (Aventis Pharma Deutschland GmbH, priority 1998, dated 2006):
# Tested on: bile acid transport in the ileum and the fecal excretion of bile acids
# Assay: ED200 excretion: fecal excretion of 14C-taurocholate in the rat after oral administration twice daily
# Assay type: in vivo
# Conditions: Rattus norvegicus, po, 24 h, twice daily for one day, male Wistar rats; dose which increases fecal excretion of 14C taurocholic acid to 200% of control; diastereomer mixture unless stated
# Method: The biological testing of the compounds according to the invention was carried out by determination of the ED200 excretion. This testing investigates the action of the compounds according to the invention on the bile acid transport in the ileum and the fecal excretion of bile acids in the rat after oral administration twice daily. The diastereomer mixtures of the compounds were tested.
# The following recipe was used for the formulation of an aqueous solution:
# the substances were dissolved in adequate volumes of an aqueous solution comprising Solutol (=polyethylene glycol […] hydroxystearate; BASF, Ludwigshafen, Germany; Batch No. 1763), so that a final concentration of 5% of Solutol is present in the aqueous solution. The solutions/suspensions were administered orally in a dose of 5 ml/kg. 2) Experimental Conditions
# Male Wistar rats (Kastengrund, Hoechst AG, weight range 250–350 g) were kept in groups of 6 animals each and received a standard feed mixture (Altromin, Lage, Germany) from 10 days before the start of treatment (day 1) with a reversed day/night rhythm (4.00–16.00 dark, 16.00–4.00 light). Three days before the start of the experiment (day 0), the animals were divided into groups of 4 animals each.
# After intravenous or subcutaneous administration of 5 μCi of ^14C-taurocholate per rat (day 0), the vehicles or test substances were given at 7.00–8.00 and at 15.00–16.00 on the following day (day 1) (treatment for one day).
# Stool samples for the analysis of C-taurocholate were taken every 24 hours directly after the administration of the morning dose. The feces were weighed, stored at −18° C. and later suspended in 100 ml of demineralized water and homogenized (Ultra Turrax, Janke & Kunkel, IKA-Werk). Aliquot parts (0.5 g) were weighed and combusted on combustion lids (Combusto Cones, Canberra Packard) in a combustion apparatus (Tri Carb® 307 combuster Canberra Packard GmbH, Frankfurt am Main, Germany). The resulting ^14CO2 was absorbed with Carbo-Sorb® (Canberra Packard). The following ^14C radioactivity measurements were determined after addition of the scintillator (Perma-Fluor complete scintillation cocktail No. 6013187, Packard) to the samples with the aid of liquid scintillation counting (LSC). The fecal excretion of ^14C-taurocholic acid was calculated as a cumulative and/or percentage residual radioactivity (see below).
# The fecal excretion of ^14C-TCA was determined in combusted aliquot parts of the stool samples taken at 24-hour intervals, calculated as the “cumulative percentage” of the administered activity and expressed as a % of the residual activity (=remaining activity, i.e. administered activity minus the already excreted activity). For the calculation of the dose-response curves, the excretion of ^14C taurocholic acid was expressed as a percentage proportion of the corresponding values of the control group (treated with vehicle). The ED200, i.e. the dose which increases the fecal excretion of ^14C taurocholic acid to 200% of the control group, is calculated from a sigmoid or linear dose-response curve by interpolation. The calculated ED200 corresponds to a dose which doubles the fecal excretion of bile acids.
row,Compound,ED (200% of control)
1,"CCCC[C@]1(CC)CS(=O)(=O)c2ccc(N(C)C)cc2[C@@H](c2cccc(N)c2)[C@H]1O [Comparison Example 1, reference compound]",0.8 mg/kg/day
2,"CCCC[C@]1(CC)CS(=O)(=O)c2ccc(N(C)C)cc2[C@@H](c2cccc(NC(=O)CCCCBr)c2)[C@H]1O [Comparison Example 2, reference compound]",1 mg/kg/day
3,"CCCC[C@]1(CC)CS(=O)(=O)c2ccc(N(C)C)cc2[C@@H](c2cccc(NC(=O)CCCC[N+](CC)(CC)CC)c2)[C@H]1O [Comparison Example 3, reference compound]",0.9 mg/kg/day
4,CCCC[C@]1(CC)CS(=O)(=O)c2ccc(N(C)C)cc2[C@@H](c2cccc(NC(=O)[C@H](O)[C@@H](O)[C@H](O)[C@H](O)CO)c2)[C@H]1O [Example 1],0.009 mg/kg/day
5,CCCC[C@]1(CC)CS(=O)(=O)c2ccc(N(C)C)cc2[C@@H](c2cccc(NC(=O)[C@H](OC(C)=O)[C@@H](OC(C)=O)[C@H](OC(C)=O)[C@@H](COC(C)=O)OC(C)=O)c2)[C@H]1O [Example 2],0.008 mg/kg/day
6,CCCCC1(CCCC)CS(=O)(=O)c2ccc(N(C)C)cc2[C@@H](c2cccc(NC(=O)[C@H](OC(C)=O)[C@@H](OC(C)=O)[C@H](OC(C)=O)[C@@H](COC(C)=O)OC(C)=O)c2)[C@H]1O [Example 6],0.04 mg/kg/day
7,CCCCC1(CCCC)CS(=O)(=O)c2ccc(N(C)C)cc2[C@@H](c2cccc(NC(=O)[C@H](O)[C@@H](O)[C@H](O)[C@H](O)CO)c2)[C@H]1O [Example 7],0.04 mg/kg/day
8,CCCC[C@]1(CC)CS(=O)(=O)c2ccc(N(C)C)cc2[C@@H](c2cccc(NC(=O)CCCCNC(=O)[C@H](OC(C)=O)[C@@H](OC(C)=O)[C@H](OC(C)=O)[C@@H](COC(C)=O)OC(C)=O)c2)[C@H]1O [Example 8],0.007 mg/kg/day
9,CCCC[C@]1(CC)CS(=O)(=O)c2ccc(N(C)C)cc2[C@@H](c2cccc(NC(=O)CCCCNC(=O)[C@H](O)[C@@H](O)[C@H](O)[C@H](O)CO)c2)[C@H]1O [Example 9],0.007 mg/kg/day
10,CCCC[C@]1(CC)CS(=O)(=O)c2ccc(N(C)C)cc2[C@@H](c2cccc(NC(=O)CCCCN(C[C@H](OC(C)=O)[C@@H](OC(C)=O)[C@H](OC(C)=O)[C@@H](COC(C)=O)OC(C)=O)C(C)=O)c2)[C@H]1O [Example 10],0.04 mg/kg/day

# Same assay, conditions: p.o., twice daily for one day, male Wistar rats; dose which increases fecal excretion of 14C taurocholic acid to 200% of control; diastereomer mixture unless stated
row,Compound,ED200 excretion
1,CCCC[C@]1(CC)CS(=O)(=O)c2ccc(N(C)C)cc2[C@@H](c2cccc(NC(=O)CCCCNC[C@H](O)[C@@H](O)[C@H](O)[C@H](O)CO)c2)[C@H]1O [3 (pure structure 11a)],0.008 mg/kg/day
2,CCCC[C@]1(CC)CS(=O)(=O)c2ccc(N(C)C)cc2[C@@H](c2cccc(NC(=O)CCCCNC[C@H](O)[C@@H](O)[C@H](O)[C@H](O)CO)c2)[C@H]1O [Example 3],0.04 mg/kg/day
